Measured values taken from US20180246121A1, “IMMUNOLOGICAL TEST METHOD AND IMMUNOLOGICAL TEST KIT” (Fuso Parmaceutical Industries, Ltd., priority 2015, published 2018).

Tests used:
HMGB2 [1] = target: T1, HMGB2 (Homo sapiens, UniProt P26583); experiment: ELISA, immobilized HMa166 and HRP-labeled HMGB1 polyclonal antibody No. 12: nonspecific reaction to HMGB2; assay type: binding; details: 1,820 ng/mL HMGB2; peptide 0.5 mg/mL; labeled polyclonal antibody No. 12
T1 sequence (P26583 1-209): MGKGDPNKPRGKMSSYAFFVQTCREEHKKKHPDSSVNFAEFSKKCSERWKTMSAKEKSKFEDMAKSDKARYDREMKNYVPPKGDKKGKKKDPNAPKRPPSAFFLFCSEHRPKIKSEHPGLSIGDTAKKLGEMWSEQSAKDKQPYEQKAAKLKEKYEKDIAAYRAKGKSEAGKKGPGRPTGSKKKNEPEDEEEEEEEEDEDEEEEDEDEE

HMGB1 [2] = experiment: ELISA, immobilized HMa166 and HRP-labeled HMGB1 polyclonal antibody No. 14: HMGB1 measurement; assay type: binding, human; details: 50 ng/mL HMGB1; peptide 0.5 mg/mL; labeled polyclonal antibody No. 14
Method: (§1) Anti-HMGB1 antibody HMa166 at 10 μg/mL was immobilized onto a 96-well ELISA plate (Maxsorp, Nunc), and blocking was performed by dispensing 200 μL of ImmunoBlock (DS Pharma Biomedical) diluted five-fold in purified water. After washing with TBSt (10 mM Tris pH 7.4, 150 mM NaCl, 0.05% Tween-20), HMGB1 was added at 50 ng/mL or HMGB2 was added at 1,820 ng/mL, […] The mixture was allowed to react at 37° C. for two hours followed by washing with TBSt. After adding HMGB1 polyclonal antibody No. 12 or No. 14 obtained by immunizing rabbits with a synthetic human HMGB1 peptide or a recombinant human HMGB1, each of which had been labeled with HRP, the mixture was reacted at room temperature for one hour. After the reaction, the plate was washed with TBSt, and chromogenic substrate TMBZ (KPL) was added according to a standard method, the reaction was stopped with phosphoric acid, and the absorbances at 450 nm were measured using a microplate reader, […]
(§2) Next, whether similar effects can be obtained with antibodies other than CP11-1 was examined. […]

HMGB1 [3] = experiment: Sandwich ELISA, immobilized HMa166 and HRP-labeled CP11-1: HMGB1 measurement in the presence of an HMGB2 absorbent; assay type: binding, human; details: 12.5 ng/mL HMGB1, HMGB2 peptide 0 to 1.0 mg/mL
Method: Then, the effects of each anti-HMGB2 antibody were observed.
By means of an ELISA system using immobilized anti-HMGB1 antibody MHa166 and an HRP-labeled anti-HMGB1 antibody CP11-1, it was examined whether nonspecific reactions by HMGB2 will be decreased when the reaction is achieved by 1,820 ng/mL HMGB2 in the presence of the HMGB2 peptide at 0 to 1.0 mg/mL (FIGS. 8B and 9B). In addition, effects of the coexisting HMGB2 peptide on HMGB1 measurements were similarly examined using 12.5 ng/mL HMGB1 (FIGS. 8A and 9A).

HMGB2 [4] = target: T1, HMGB2; experiment: ELISA, immobilized HMa166 and HRP-labeled HMGB1 polyclonal antibody No. 14: nonspecific reaction to HMGB2; assay type: binding; details: 1,820 ng/mL HMGB2; peptide 0.5 mg/mL; labeled polyclonal antibody No. 14
Method: Furthermore, whether commercially available anti-HMGB2 antibodies can suppress nonspecific reactions to HMGB2 even when the labelled antibody is changed was examined. Anti-HMGB1 antibody HMa166 at 10 μg/mL was immobilized onto a 96-well ELISA plate (Maxsorp, Nunc), and blocking was performed by dispensing 200 μL of ImmunoBlock (DS Pharma Biomedical) diluted five-fold in purified water. After washing with TBSt (10 mM Tris pH 7.4, 150 mM NaCl, 0.05% Tween-20), HMGB1 was added at 50 ng/mL or HMGB2 was added at 1,820 ng/mL, […] The mixture was allowed to react at 37° C. for two hours followed by washing with TBSt. After adding HMGB1 polyclonal antibody No. 12 or No. 14 obtained by immunizing rabbits with a synthetic human HMGB1 peptide or a recombinant human HMGB1, each of which had been labeled with HRP, the mixture was reacted at room temperature for one hour. After the reaction, the plate was washed with TBSt, and chromogenic substrate TMBZ (KPL) was added according to a standard method, the reaction was stopped with phosphoric acid, and the absorbances at 450 nm were measured using a microplate reader, to observe impairment of the reaction due to the anti-HMGB2 antibody.
as §2

HMGB1 [5] = experiment: ELISA, immobilized HMa166 and HRP-labeled HMGB1 polyclonal antibody No. 12: HMGB1 measurement; assay type: binding, human; details: 50 ng/mL HMGB1; peptide 0.5 mg/mL; labeled polyclonal antibody No. 12
Method: as §1, §2

HMGB2 [6] = target: T1, HMGB2; experiment: Competitive sandwich ELISA, immobilized anti-HMGB1 antibody HMa166 and HRP-labeled anti-HMGB1 antibody CP11-1: nonspecific reaction to HMGB2; assay type: binding; details: 1,820 ng/mL HMGB2; HMGB2 peptide 0 to 1.0 mg/mL; labeled CP11-1
Method: A 100 μL portion of 10 μg/mL anti-HMGB1 antibody HMa166 was added to a 96-well ELISA plate (Maxsorp, Nunc). Then, immobilization was carried out according to a standard method, and blocking was performed by dispensing 200 μL of ImmunoBlock (DS Pharma Biomedical) diluted five-fold in purified water. After washing with TBSt (10 mM Tris pH 7.4, 150 mM NaCl, 0.05% Tween-20), HMGB2 was added at 1,400 ng/mL, the mixture was allowed to react at room temperature for two hours followed by washing with TBSt, and an HRP-labeled anti-HMGB1 antibody CP11-1 was added. Then, after washing, chromogenic substrate TMBZ (KPL) was added according to a standard method. The reaction was stopped using phosphoric acid, and the absorbance at 450 nm was measured using a microplate reader. Furthermore, as a competitive agent, commercially available anti-HMGB2 antibodies shown in Table 1 were added to the reaction system at 10 μg/mL, and impairment of the reaction due to anti-HMGB2 antibodies was observed.
Furthermore, 0 to 1,300 μg/mL HMGB2 was measured by sandwich ELISA using the MHa166 antibody and the CP11-1 antibody, which were obtained by immunization with HMGB1, to observe how much HMGB2 reacts in ELISA using the MHa166 antibody and the CP11-1 antibody. […]

HMGB1 [7] = experiment: ELISA, immobilized MHa166 and HRP-labeled monoclonal antibody HMa176: HMGB1 measurement; assay type: binding, human; details: 50 ng/mL HMGB1, peptide 0.5 mg/mL
Method: Similar examinations were carried out for systems using another monoclonal antibody. It was examined how the reactions achieved by 50 ng/mL HMGB1 change when MHa176 antibody, which was obtained by immunization with HMGB1, were HRP-labeled and an HMGB2 peptide was allowed to coexist at a concentration of 0.5 mg/mL in an ELISA system with the immobilized anti-HMGB1 antibody MHa166 (FIG. 12A). Furthermore, effects of the coexisting HMGB2 peptide on HMGB2 measurements were similarly examined using 1,820 ng/mL HMGB2 (FIG. 12B).

Sequence | effect of HMGB2 peptide on HMGB2 measurements (HMGB2 [1]) | effect of HMGB2 peptide on HMGB1 measurements (HMGB1 [2]) | effect of HMGB2 peptide on measured values of HMGB1 (HMGB1 [3]) | neutralizing effects on HMGB2 (HMGB2 [4]) | effect of HMGB2 peptide on HMGB1 measurements (HMGB1 [5]) | absorption of nonspecific reaction to HMGB2 by HMGB2 peptide (HMGB2 [6]) | effect of HMGB2 peptide on reactivity of HMGB1 (HMGB1 [7]) | effect of HMGB2 peptide on measured values of HMGB1 (HMGB1 [3]; listed as HM2-2 peptide) | enhancement of the reaction with HMGB1 (HMGB1 [5])
MGKGDPNKPRGKMSSYA [HM2-1, HMGB2-derived peptide, 1st to 17th amino acids of full-length human HMGB2] | did not affect | did not have any influence | hardly affected | not observed | did not affect | able to absorb nonspecific reaction to HMGB2 in a concentration-dependent manner | – | – | –
CREEHKKKHPDSSVNFAEFS [HM2-2, HMGB2-derived peptide, 23rd to 42nd amino acids of full-length human HMGB2] | attenuated | increased the reactivity of HMGB1 | concentration-dependent reaction enhancement | not observed | – | absorbed nonspecific reactions to HMGB2 in a concentration-dependent manner | enhancement of reactivity of HMGB1 | concentration-dependent enhancement of the reaction | approximately 1.6 fold
